Laboratory results taken from patent US7214694B2, “3-ox(adi)azolylpropanohydroxamic acids useful as procollagen C-proteinase inhibitors” (Pfizer Inc, priority 2001, dated 2007).
Read-outs that look alike come from different tables or passages of the source.

What was measured:
human PCP = molecular target: T1, human PCP (Homo sapiens, UniProt P13497); assay: fluorogenic PCP cleavage assay (PCP inhibition); assay type: biochemical; details: fluorogenic substrate 3×10^−6 M, pH 7.6, 37° C.
T1 construct: made in house; host or cells: CHO cells (stably transfected), purified from the supernatant
T1 sequence (P13497 121-986): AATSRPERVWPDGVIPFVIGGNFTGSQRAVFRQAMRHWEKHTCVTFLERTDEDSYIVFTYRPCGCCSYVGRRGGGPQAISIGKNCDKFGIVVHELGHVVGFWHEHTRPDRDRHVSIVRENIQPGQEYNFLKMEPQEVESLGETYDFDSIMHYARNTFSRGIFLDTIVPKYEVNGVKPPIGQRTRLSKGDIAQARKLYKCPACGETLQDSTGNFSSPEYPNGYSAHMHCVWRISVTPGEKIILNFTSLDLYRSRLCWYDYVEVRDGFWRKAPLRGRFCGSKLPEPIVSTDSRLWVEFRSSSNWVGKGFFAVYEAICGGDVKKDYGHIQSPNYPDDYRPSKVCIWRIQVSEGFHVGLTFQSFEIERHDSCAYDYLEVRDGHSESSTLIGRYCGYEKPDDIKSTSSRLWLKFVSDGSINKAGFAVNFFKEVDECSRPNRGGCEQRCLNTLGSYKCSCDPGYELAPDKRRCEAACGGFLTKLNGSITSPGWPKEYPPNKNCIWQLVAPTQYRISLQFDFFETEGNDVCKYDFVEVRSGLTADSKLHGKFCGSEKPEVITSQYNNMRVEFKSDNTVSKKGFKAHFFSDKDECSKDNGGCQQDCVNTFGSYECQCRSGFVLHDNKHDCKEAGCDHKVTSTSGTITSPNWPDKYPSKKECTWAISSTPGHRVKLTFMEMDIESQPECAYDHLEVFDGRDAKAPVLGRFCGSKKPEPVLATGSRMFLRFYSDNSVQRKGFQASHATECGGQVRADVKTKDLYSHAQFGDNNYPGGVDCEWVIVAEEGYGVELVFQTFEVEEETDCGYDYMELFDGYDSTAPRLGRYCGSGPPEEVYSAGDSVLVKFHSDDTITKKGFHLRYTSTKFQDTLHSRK
Method: In order to determine potency of PCP inhibitors a fluorogenic PCP cleavage assay was used. This assay is based on the template of Beekman et al. (FEBS Letters (1996), 390: 221–225) using a fluorogenic substrate. The substrate (Dabcyl-Arg-Tyr-Tyr-Arg-Ala-Asp-Asp-Ala-Asn-Val-Glu(EDANS)-NH2) contains the cleavage site of human PCP (Hojima et al., J Biol Chem (1985), 260:15996–16003). […]. The assay was performed in 96-well black fluorimeter plates and fluorescence was read continuously in a fluorimeter over 2.5 hours (λex=340 nm, λem=485 nm) at a constant 37° C. with shaking. Release of the fluorogenic signal was in linear correlation to PCP activity. Reading of the mean velocity from 30 min after start of experiment until 2.5 hours was calculated by the Biolise software. IC50 values were calculated by plotting % inhibition values against compound concentration using Tessela add in for Excel spreadsheet.

PCP = details: cited from earlier work

SMILES | melting point | also measured
O=C(C[C@@H](CCCC1CCCCC1)c1nc(CNC2CCCCC2)no1)NO [Example 41, (3R)-6-cyclohexyl-3-{3-[(cyclohexylamino)methyl]-1,2,4-oxadiazol-5-yl}-N-hydroxyhexanamide] | 127 °C | –
O=C(C[C@@H](CCCC1CCCCC1)c1nc(CNS(=O)(=O)c2ccccn2)no1)NO [Example 6, (3 R)-6-cyclohexyl-N-hydroxy-3-(3-[(2-pyridinylsulfonyl)amino]methyl-1,2,4-oxadiazol-5-yl)hexanamide] | – | IC50 (human PCP): 107 nM
COCCCNCc1noc([C@H](CCCC2CCCCC2)CC(=O)NO)n1 [Example 45, (3R)-6-cyclohexyl-N-hydroxy-3-(3-{[(3-methoxypropyl)amino]methyl}-1,2,4-oxadiazol-5-yl)hexanamide] | 60 °C | –
[Cl-].[Na+] [NaCl] | – | activity of PCP, of that observed with the standard assay concentration of 0.15M (PCP; 0.2M NaCl): 66%; activity of PCP, of that observed with the standard assay concentration of 0.15M (PCP; 0.3M NaCl): 38%; activity of PCP, of that observed with the standard assay concentration of 0.15M (PCP; 0.5M NaCl): 25%
CC(C)CNCc1noc([C@H](CCCC2CCCCC2)CC(=O)NO)n1 [Example 35, (3R)-6-cyclohexyl-N-hydroxy-3-{3-[(isobutylamino)methyl]-1,2,4-oxadiazol-5-yl}hexanamide] | 97.8 to 99 °C | –
Cc1oc([C@H](CCCC2CCCCC2)CC(=O)NO)nc1CNC1CCOCC1 [Example 71, (3R)-6-cyclohexyl-N-hydroxy-3-{5-methyl-4-[(tetrahydro-2H-pyran-4-ylamino)methyl]-1,3-oxazol-2-yl}hexanamide] | 108 to 110 °C | –
O=C(C[C@@H](CCCC1CCCCC1)c1nc(CN2CCC(O)CC2)no1)NO [Example 64, (3R)-6-cyclohexyl-N-hydroxy-3-{3-[(4-hydroxy-1-piperidinyl)methyl]-1,2,4-oxadiazol-5-yl}hexanamide] | 85 °C | –
CCC(CC)NCc1noc([C@H](CCCC2CCCCC2)CC(=O)NO)n1 [Example 37, (3R)-6-cyclohexyl-3-(3-{[(1-ethylpropyl)amino]methyl}-1,2,4-oxadiazol-5-yl)-N-hydroxyhexanamide] | 102.7 to 104.3 °C | –
O=C(C[C@@H](CCCC1CCCCC1)c1nc(CN2CCOCC2)no1)NO [Example 65, (3R)-6-cyclohexyl-N-hydroxy-3-[3-(4-morpholinylmethyl)-1,2,4-oxadiazol-5-yl]hexanamide] | 138 to 139 °C | –
CCCNCc1noc([C@H](CCCC2CCCCC2)CC(=O)NO)n1 [Example 33, (3R)-6-cyclohexyl-N-hydroxy-3-{3-[(propylamino)methyl]-1,2,4-oxadiazol-5-yl}hexanamide] | 90.4 to 91.8 °C | –
O=C(C[C@@H](CCCC1CCCCC1)c1nc(CNC2CCOCC2)no1)NO [Example 50, (3R)-6-cyclohexyl-N-hydroxy-3-{3-[(tetrahydro-2H-pyran-4-ylamino)methyl]-1,2,4-oxadiazol-5-yl}hexanamide] | 108.9 to 110.3 °C | –
O=C(C[C@@H](CCCC1CCCCC1)c1nc(CNC2CCC2)no1)NO [Example 39, (3R)-3-{3-[(cyclobutylamino)methyl]-1,2,4-oxadiazol-5-yl}-6-cyclohexyl-N-hydroxyhexanamide] | 82 to 83.9 °C | –
O=C(C[C@@H](CCCC1CCCCC1)c1nc(CNC2CCCC2)co1)NO [Example 69, (3R)-6-cyclohexyl-3-{4-[(cyclopentylamino)methyl]-1,3-oxazol-2-yl}-N-hydroxyhexanamide] | 124 to 127 °C | –
O=C(C[C@@H](CCCC1CCCCC1)c1nc(CN2CCOCC2)co1)NO [Example 70, (3R)-6-cyclohexyl-N-hydroxy-3-[4-(4-morpholinylmethyl)-1,3-oxazol-2-yl]hexanamide] | 117 to 119 °C | –
CC(C)(C)NS(=O)(=O)NCc1noc([C@H](CCCC2CCCCC2)CC(=O)NO)n1 [Example 17, (3 R)-3-[3-({[(tert-butylamino)sulfonyl]amino}methyl)-1,2,4-oxadiazol-5-yl]-6-cyclohexyl-N-hydroxyhexanamide] | – | IC50 (human PCP): 98 nM
CCNCc1noc([C@H](CCCC2CCCCC2)CC(=O)NO)n1 [Example 32, (3R)-6-cyclohexyl-3-{3-[(ethylamino)methyl]-1,2,4-oxadiazol-5-yl}-N-hydroxyhexanamide] | 69.4 to 71.4 °C | –
Cc1oc([C@H](CCCC2CCCCC2)CC(=O)NO)nc1CN1CCOCC1 [Example 72, (3R)-6-cyclohexyl-N-hydroxy-3-[5-methyl-4-(4-morpholinylmethyl)-1,3-oxazol-2-yl]hexanamide] | – | IC50 (human PCP): 37 nM
